Experimental findings from ChEMBL document CHEMBL1126449, “Synthesis and anti-acetylcholinesterase activity of 1-benzyl-4-[(5,6-dimethoxy-1-indanon-2-yl)methyl]piperidine hydrochloride (E2020) and related compounds” (Bioorg Med Chem Lett, 1992) are described below.

One may read the IC50 as the midpoint of a concentration-inhibition curve. The low end stands for greater potency in that assay, the high end for weaker potency in that assay.

The assay has as its target T1, Acetylcholinesterase (Mus musculus, UniProt P21836).
T1 sequence (P21836 whole entry): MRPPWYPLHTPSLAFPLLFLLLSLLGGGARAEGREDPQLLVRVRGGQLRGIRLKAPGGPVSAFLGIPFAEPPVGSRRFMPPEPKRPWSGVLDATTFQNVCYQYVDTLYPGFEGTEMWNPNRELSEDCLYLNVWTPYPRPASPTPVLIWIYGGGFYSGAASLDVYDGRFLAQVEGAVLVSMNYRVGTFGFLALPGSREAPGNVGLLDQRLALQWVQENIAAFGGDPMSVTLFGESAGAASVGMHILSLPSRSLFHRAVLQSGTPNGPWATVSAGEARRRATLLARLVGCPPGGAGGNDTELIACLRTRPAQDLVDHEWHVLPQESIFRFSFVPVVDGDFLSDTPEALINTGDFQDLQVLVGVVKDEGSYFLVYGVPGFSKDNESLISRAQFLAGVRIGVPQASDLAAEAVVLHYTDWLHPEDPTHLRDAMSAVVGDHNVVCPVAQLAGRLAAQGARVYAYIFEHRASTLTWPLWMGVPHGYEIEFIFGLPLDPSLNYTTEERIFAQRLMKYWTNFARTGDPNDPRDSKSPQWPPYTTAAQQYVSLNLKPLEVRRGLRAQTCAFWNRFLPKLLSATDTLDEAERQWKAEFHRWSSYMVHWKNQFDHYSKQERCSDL
As to the kind of experiment: biochemical.
Description: Inhibition of Acetylcholinesterase activity in mouse brain homogenate
On to `COc1cc2c(cc1OC)C(=O)C(CC1CCN(CCc3ccccc3)CC1)C2` (configuration not stated), for which the IC50 is 180 nM.

`COc1cc2c(cc1OC)C(=O)C(CC1CCN(Cc3ccccc3C)CC1)C2` (configuration not stated) returned an IC50 of 10 nM.

Molecule `COc1cc2c(cc1OC)C(=O)C(CN1CCN(Cc3ccccc3)CC1)C2` (configuration not stated) registered an IC50 of 94 nM.

As to `COc1cc2c(cc1OC)CC(CC1CCN(Cc3ccccc3)CC1)=C2`, half-maximal inhibition (IC50) was put at 4400 nM.

With `COc1cc2c(cc1OC)C(=O)C(CC1CCN(Cc3cccc([N+](=O)[O-])c3)CC1)C2` (configuration not stated), the half-maximal inhibitory concentration (IC50) was 4 nM.

`COc1cc2c(cc1OC)C(=O)/C(=C/CC1CCN(Cc3ccccc3)CC1)C2` displayed an IC50 of 150 nM.

`COc1cc2c(cc1OC)C(=O)C(CC1CCN(Cc3cccc(C)c3)CC1)C2` (configuration not stated) had an IC50 of 2.7 nM.

Molecule `COc1cc2c(cc1OC)C(=O)/C(=C/C1CCN(Cc3ccccc3)CC1)C2` gave an IC50 of 13 nM.

Molecule `COc1cc2c(cc1OC)C(=O)C(CC1CCN(C(=O)c3ccccc3)CC1)C2` (configuration not stated) came in with an IC50 above 10000 nM.

Take `COc1cc2c(cc1OC)C(O)C(CC1CCN(Cc3ccccc3)CC1)C2` (configuration not stated): the IC50 was 300 nM.

For the molecule `COc1cc2c(cc1OC)C(=O)C(CC1CCN(CC3CCCCC3)CC1)C2` (configuration not stated), the IC50 came out at 8.9 nM.

`COc1cc2c(cc1OC)C(=O)C(CC1CCN(Cc3ccc([N+](=O)[O-])cc3)CC1)C2` (configuration not stated): the IC50 worked out at 100 nM.
